Test results as given in patent US9849101B2, “Method for enhancing amidohydrolase activity of fatty acid amide hydrolase” (Research Foundation of the City University of New York, priority 2013, dated 2017).

What was measured:
[1] = tested on: Arabidopsis thaliana wild type (Col-0) seedlings; test: Arabidopsis seedling growth (cotyledon size, primary root elongation); format: in vivo
rat E18 cortical neurons = test: Viability of cultured primary neurons (calcein fluorescence), tBHP oxidative stress; format: cell-based
Method: Commercially obtained Sprague/Dawley rat E18 cortical tissue was allowed to settle for 5-10 minutes at room temperature, the shipping media was removed (reserved at 37° C.), and the tissue was enzymatically treated with NeuroPapain dissolved in NeuroPrep Medium (2 mg/ml, 2.5 ml) for 28 minutes at 37° C. with gentle swirling every 7 minutes. Treated tissue was centrifuged for 1.5 minutes at 200×g and the cells were dissociated by gentle trituration in 1 ml of the reserved shipping medium. Cells were collected by centrifugation as above and re-suspended by gentle trituration in 1 ml of NeuroPure plating medium. Viable cells were counted, (Nexcelom Auto T4; Nexcelom Bioscience LLC. Lawrence, Mass.) re-suspended in 9 ml of NeuroPure plating medium plus enough Neurobasal medium (supplemented with B27; GlutaMAX I, 2 mM; Penicillin, 50 U/ml; Streptomycin, 50 μg/ml) to achieve a density of 250,000 cells/ml, and seeded in BD PureCoat™ black-walled amine-coated 96-well plates in a 100 μl volume. […]
Oxidative stress was induced by the addition of concentrated tert-butyl hydrogen peroxide (tBHP) to achieve a final concentration of 7.5 μM. […] For each condition, six replicate wells were measured and the mean value was used for statistical analyses. Data was analyzed and plotted using Prism 5.0 (GraphPad Software Inc., La Jolla, Calif.). […]

rat brain FAAH = biological target: T1, rat brain FAAH (Rattus norvegicus, UniProt P97612); details: reported value; read-out: IC50 for anandamide hydrolysis; cited from earlier work
T1 construct: host or cells: rat brain
T1 sequence (P97612 1-579): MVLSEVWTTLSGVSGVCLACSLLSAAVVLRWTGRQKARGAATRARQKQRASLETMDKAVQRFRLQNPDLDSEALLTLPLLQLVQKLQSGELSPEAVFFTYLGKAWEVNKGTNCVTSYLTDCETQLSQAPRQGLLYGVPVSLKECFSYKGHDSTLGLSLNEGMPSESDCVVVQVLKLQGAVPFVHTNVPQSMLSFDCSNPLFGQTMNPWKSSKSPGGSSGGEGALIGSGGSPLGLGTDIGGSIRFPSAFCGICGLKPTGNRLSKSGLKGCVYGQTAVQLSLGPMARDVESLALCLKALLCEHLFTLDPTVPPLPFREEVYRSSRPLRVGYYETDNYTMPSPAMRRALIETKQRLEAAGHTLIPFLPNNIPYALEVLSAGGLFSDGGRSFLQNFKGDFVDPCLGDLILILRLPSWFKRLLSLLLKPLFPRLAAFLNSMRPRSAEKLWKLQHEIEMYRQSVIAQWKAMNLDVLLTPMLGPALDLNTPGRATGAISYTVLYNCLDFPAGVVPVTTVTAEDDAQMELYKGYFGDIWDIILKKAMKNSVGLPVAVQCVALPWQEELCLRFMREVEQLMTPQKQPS

At-FAAH = biological target: T2, At-FAAH (Arabidopsis thaliana, UniProt Q7XJJ7); test: Ethanolamine inhibition assay, At-FAAH; format: biochemical
T2 construct: made in house; host or cells: E. coli TOP10
T2 sequence (Q7XJJ7 1-607): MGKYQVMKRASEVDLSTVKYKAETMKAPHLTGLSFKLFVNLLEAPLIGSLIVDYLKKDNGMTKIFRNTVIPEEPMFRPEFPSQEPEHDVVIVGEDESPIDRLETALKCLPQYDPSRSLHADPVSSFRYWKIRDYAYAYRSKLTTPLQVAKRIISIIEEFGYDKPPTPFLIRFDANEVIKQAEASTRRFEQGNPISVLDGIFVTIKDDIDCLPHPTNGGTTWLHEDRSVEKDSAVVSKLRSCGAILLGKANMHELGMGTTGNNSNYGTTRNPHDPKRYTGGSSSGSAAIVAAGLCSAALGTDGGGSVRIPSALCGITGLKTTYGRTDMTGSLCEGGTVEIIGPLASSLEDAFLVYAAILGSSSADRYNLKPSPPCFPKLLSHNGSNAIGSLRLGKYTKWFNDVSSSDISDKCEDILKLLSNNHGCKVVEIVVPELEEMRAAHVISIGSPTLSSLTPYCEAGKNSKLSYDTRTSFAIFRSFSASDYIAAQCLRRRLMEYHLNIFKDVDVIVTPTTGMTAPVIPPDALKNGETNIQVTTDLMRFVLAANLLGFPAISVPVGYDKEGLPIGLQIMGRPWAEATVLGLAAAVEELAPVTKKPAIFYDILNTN

[2] = biological target: T3, NAE amidohydrolase activity from crude seedling extracts (Arabidopsis thaliana, UniProt Q7XJJ7); test: Plant amidohydrolase assay on crude seedling protein extract; format: biochemical; details: [1-14C]-NAE 12:0, 11-d-old seedlings, 2 hours
T3 construct: from tissue; host or cells: 11-day-old Arabidopsis thaliana Col-0 seedlings, total solubilized protein
T3 sequence (Q7XJJ7 1-607): T2 sequence (Q7XJJ7 1-607)

[3] = biological target: T4, Arabidopsis thaliana FAAH (AT-FAAH) (Arabidopsis thaliana, UniProt Q7XJJ7); test: NAE amidohydrolase assay on purified recombinant At-FAAH; format: biochemical
T4 construct: made in house; host or cells: E. coli TOP10
T4 sequence (Q7XJJ7 1-607): T2 sequence (Q7XJJ7 1-607)

rat FAAH [4] = biological target: T5, rat FAAH (Rattus norvegicus, UniProt P97612); test: Ethanolamine inhibition assay, rat FAAH; format: biochemical
T5 construct: made in house; host or cells: E. coli TOP10
T5 sequence (P97612 1-579): T1 sequence (P97612 1-579)

rat FAAH [5] = biological target: T5, rat FAAH; test: NAE amidohydrolase assay on purified recombinant rat FAAH; format: biochemical
[6] = 100 μM compound, up to 10 mM ethanolamine, 100 μM [1-14C]-NAE 12:0
[7] = 2 μg protein, 100 μM-300 μM substrate, TLC
[8] = 100 μM [1-14C]-NAE 12:0 with 100 μM compound

Compound: CCCCCCCCCCCC(=O)NCCO [NAE 12:0, N-lauroylethanolamine, reference compound]
- seedling growth on exogenous application ([1]; applied exogenously): inhibits seedling growth

Compound: CCCCCCCCCCCCCCCC(=O)NCCO [NAE 16:0, N-palmitoylethanolamine]
- reversal of cardanol-induced exacerbation of tBHP mediated cell death (rat E18 cortical neurons; 1 hour prior to addition of 1 nM cardanol-EA): dose-dependent reversal
- IC50 (rat brain FAAH): 5.1 µM

Compound: CCCCCCCCCCCCCCCc1cccc(OCC(=O)NCCO)c1 [PDP-EA, N-(2-hydroxyethyl)-2-(3-pentadecylphenoxy)acetamide]
- protection from ethanolamine product inhibition (At-FAAH; [6]): relieved this ethanolamine inhibition almost completely
- reversal of negative seedling growth effects of exogenous NAE 12:0 ([1]; 30 μM NAE 12:0, 20 μM compound, 11 days): reverse partially
- seedling growth (cotyledon size), compound alone ([1]; compound alone, 11 days): positive impact on seedling growth
- reversal of negative effects of NAE 12:0 on cotyledon size ([1]; with NAE 12:0, 11 days): partially reversed
- NAE amidohydrolase activity of crude seedling extracts [2]: enhancement
- apparent Vmax [3]: increased
- hydrolysis of the compound as substrate to acid form and ethanolamine [3, 7]: not suitable substrates
- amidohydrolase activity toward NAE [3, 8]: increased
- increase of activity by a factor ([3]; 100 μM compound, different [1-14C]-NAEs): about 4±1.2
- Km app versus solvent control ([3]; NAE 12:0 substrate, 100 μM compound, T-test confidence level 95%): No statistical difference
- non-enzymatic hydrolysis of NAE to free fatty acid ([3]; heat-denaturated enzyme, 100 μM compound): no activity
- protection from ethanolamine product inhibition (rat FAAH [4]; [6]): relieved this ethanolamine inhibition almost completely
- apparent Vmax (rat FAAH [5]): increased
- hydrolysis of the compound as substrate to acid form and ethanolamine (rat FAAH [5]; [7]): not suitable substrates
- amidohydrolase activity toward NAE (rat FAAH [5]; [8]): increased
- increase of activity by a factor (rat FAAH [5]; 100 μM compound, NAE 16:0 and NAE 12:0): about 5±2.2
- Kcat versus solvent control (rat FAAH [5]; NAE 20:4 substrate, 100 μM compound): increase in Kcat

Compound: NC(=O)c1cccc(-c2cccc(OC(=O)NC3CCCCC3)c2)c1 [URB597]
- reversal of cardanol-induced exacerbation of tBHP mediated cell death by FAAH inhibitor (rat E18 cortical neurons): completely reversed

Compound: NCCO [ethanolamine]
- NAE hydrolase activity at increasing ethanolamine concentrations (At-FAAH; 0-100 mM ethanolamine): dose-dependent reduction
- NAE hydrolase activity at increasing ethanolamine concentrations (rat FAAH [4]; 0-100 mM ethanolamine): dose-dependent reduction
